# Values quoted from earlier work, collected in article PMC7211198, “Phase 1b study of a small molecule antagonist of human chemokine (C-C motif) receptor 2 (PF-04136309) in combination with nab-paclitaxel/gemcitabine in first-line treatment of metastatic pancreatic ductal adenocarcinoma” (Investigational New Drugs, 2019).
# Read-outs that look alike come from different tables or passages of the source.
# Test system: advanced pancreatic cancer
# Settings: cited from earlier work
structure (smiles),measurement,setting,value
Nc1ccn([C@@H]2O[C@H](CO)[C@@H](O)C2(F)F)c(=O)n1 [gemcitabine],Observed rate of pneumonitis,gemcitabine combined with nab-paclitaxel,up to 4%
same,Observed rate of pneumonitis,patients treated with gemcitabine,approximately 1%
